Values quoted from earlier work in patent US20050163829A1, “Device and patch for controlled release of vanillin” (priority 2001, published 2005).

How the values were obtained:
[1] = tested on: nicotinic acetylcholine receptor (nACh)
[2] = tested on: glutamate receptors (NMDA)

SMILES	effect on the GABA receptor (GABA receptor)	effect on the glutamate receptor KA (glutamate receptors (KA))	effect on the nicotinic acetylcholine receptor (nACh) [1]	effect on the glutamate receptor NMDA [2]
COc1cc(C=O)ccc1O [Vanillin, 3 methoxy-4 hydroxybenzaldehyde]	inhibited	inhibitory effect	inhibited	inhibitory effect
CCCCOC(C)=O [butyl acetate]	stimulate			
CC(C)=CCC/C(C)=C/CO [geraniol]	stimulate			
